Assay results as given in ChEMBL document CHEMBL3739343, “Identification and activity of inhibitors of the essential nematode-specific metalloprotease DPY-31” (Bioorg Med Chem Lett, 2015).
pIC50: −log10 of the molar value. Active and inactive are the calls of the source. No cut-off for these calls is given here. Where a SMILES comes first, the peptide text is derived from it.

How the values were obtained:
[1] = target: T1, Zinc metalloproteinase dpy-31 (Teladorsagia circumcincta, UniProt A0A0C5PRQ1); assay: Inhibition of recombinant Teladorsagia circumcincta DPY-31 astacin domain expressed in Escherichia coli using Suc-Ala-Ala-Ala-pNA as substrate preincubated for 3 hrs followed by substrate addition measured after 3 hrs by microplate reader assay
T1 sequence (A0A0C5PRQ1 whole entry): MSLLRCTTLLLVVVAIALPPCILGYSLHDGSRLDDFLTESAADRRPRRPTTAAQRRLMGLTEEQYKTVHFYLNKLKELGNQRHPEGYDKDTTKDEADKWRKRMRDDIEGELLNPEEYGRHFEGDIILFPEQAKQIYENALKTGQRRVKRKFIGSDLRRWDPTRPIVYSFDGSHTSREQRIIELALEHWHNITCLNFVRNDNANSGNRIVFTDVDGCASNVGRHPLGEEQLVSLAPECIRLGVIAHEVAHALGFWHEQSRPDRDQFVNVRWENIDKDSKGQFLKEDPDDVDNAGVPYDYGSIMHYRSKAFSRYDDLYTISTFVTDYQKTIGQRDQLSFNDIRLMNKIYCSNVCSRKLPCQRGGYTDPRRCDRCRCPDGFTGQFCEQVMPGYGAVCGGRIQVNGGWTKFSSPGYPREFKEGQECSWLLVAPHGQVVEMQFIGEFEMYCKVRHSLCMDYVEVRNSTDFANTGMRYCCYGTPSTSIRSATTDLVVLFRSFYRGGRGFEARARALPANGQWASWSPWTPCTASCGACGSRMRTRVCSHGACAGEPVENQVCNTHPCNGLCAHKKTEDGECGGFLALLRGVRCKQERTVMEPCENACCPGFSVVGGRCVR

[2] = target: T2, Zinc metalloproteinase dpy-31 (Brugia malayi, UniProt A8Q2D1); assay: Inhibition of recombinant Brugia malayi DPY-31 astacin domain expressed in Escherichia coli using Suc-Ala-Ala-Ala-pNA as substrate preincubated for 3 hrs followed by substrate addition measured after 3 hrs by microplate reader assay; details: for IC50: read-out: pIC50 (converted)
T2 sequence (A8Q2D1 whole entry): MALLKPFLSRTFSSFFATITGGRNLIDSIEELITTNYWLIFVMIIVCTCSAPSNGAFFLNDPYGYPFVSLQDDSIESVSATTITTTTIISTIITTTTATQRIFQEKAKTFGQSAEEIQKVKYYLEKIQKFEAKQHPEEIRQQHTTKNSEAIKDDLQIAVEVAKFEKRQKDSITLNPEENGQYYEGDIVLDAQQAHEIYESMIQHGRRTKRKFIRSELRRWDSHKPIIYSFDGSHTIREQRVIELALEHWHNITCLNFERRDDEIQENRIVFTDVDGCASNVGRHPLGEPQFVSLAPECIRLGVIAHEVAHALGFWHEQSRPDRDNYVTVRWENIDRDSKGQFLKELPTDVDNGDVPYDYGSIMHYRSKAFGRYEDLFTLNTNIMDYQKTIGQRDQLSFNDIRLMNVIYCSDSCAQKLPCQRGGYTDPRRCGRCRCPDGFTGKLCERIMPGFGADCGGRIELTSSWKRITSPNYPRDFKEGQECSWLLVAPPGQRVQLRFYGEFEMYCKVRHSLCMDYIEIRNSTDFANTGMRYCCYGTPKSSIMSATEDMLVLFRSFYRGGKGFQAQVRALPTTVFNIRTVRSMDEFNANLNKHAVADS

[3] = test system: Teladorsagia circumcincta; assay: Antiparasitic activity against Teladorsagia circumcincta L3 assessed as induction of Dpy phenotype at 500 uM after 3 days by microscopic analysis; format: functional, organism-based
[4] = test system: Caenorhabditis elegans; assay: Antiparasitic activity against wild type Caenorhabditis elegans N2 assessed as induction of Dpy phenotype at 50 uM measured after 3 days by microscopic analysis; format: functional, organism-based
[5] = test system: Caenorhabditis elegans; assay: Antiparasitic activity against Teladorsagia circumcincta dpy-31 transgenically-rescued Caenorhabditis elegans dpy-31 mutant TP224 assessed as induction of Dpy phenotype at 100 uM after 3 days by microscopic analysis; format: functional, organism-based

Row | SMILES | pIC50 [1] | pIC50 ([2]; read-out: IC50) | Activity [3] | IC50 [2] | Activity [4] | Activity [5]
1 | CNC(=O)[C@@H](NC(=O)[C@H](CC(C)C)[C@H](O)C(=O)NO)C(C)(C)C [MARIMASTAT] | 4.10 | – | – | – | – | –
2 | COC(=O)[C@@H]1CCCN1C(=O)[C@H](C)CP(=O)(O)[C@H](Cc1ccccc1)NC(=O)[C@H](CCCCN)NC(=O)[C@@H]1CCCN1C(=O)OCc1ccccc1 | – | < 3.30 | – | – | – | –
3 | C[C@H](NC(=O)[C@@H]1CCCN1C(=O)OCC1c2ccccc2-c2ccccc21)C(=O)N[C@@H](Cc1ccccc1)C(=O)NO (HELM PEPTIDE1{[O=C(OCC1c2ccccc2-c2ccccc21)[*:2]].P.A.F.[ON[*:1]]}$$$$V2.0) | 4.50 | – | Active | 25.1 µM | Active | Active
4 | O=C(C[C@@H](CCCC1CCCCC1)c1nc(-c2cc(C(=O)O)ccn2)no1)NO | 4.40 | – | – | 20 µM | – | –
5 | C[C@H](NC(=O)[C@@H]1CCCN1C(=O)OC(C)(C)C)C(=O)N[C@@H](Cc1ccccc1)C(=O)NO (HELM PEPTIDE1{[CC(C)(C)OC(=O)[*:2]].P.A.F.[ON[*:1]]}$$$$V2.0) | 4.60 | – | Active | 79.4 µM | Active | Active
